Test results: ChEMBL document CHEMBL1201862, “PubChem BioAssay data set” (2004)
Activity calls are given as the source filed them.

Assays:
Assay type in all cases: functional
[1] = target: DNA dC->dU-editing enzyme APOBEC-3G (Homo sapiens, UniProt Q9HC16); test: SAR analysis of small molecule inhibitors of APOBEC3G DNA Deaminase via a fluorescence-based single-stranded DNA deaminase assay - Set 2.; conditions: read-out: IC50_Mean
[2] = target: DNA dC->dU-editing enzyme APOBEC-3A (Homo sapiens, UniProt P31941); test: SAR analysis of small molecule inhibitors of APOBEC3A DNA Deaminase via a fluorescence-based single-stranded DNA deaminase assay - Set 2.; conditions: read-out: IC50_Mean
[3] = target: Dual specificity mitogen-activated protein kinase kinase 1 (Homo sapiens, UniProt Q02750); test: Navigating the Kinome. Panel member name: MAP2K1
[4] = target: Dual specificity tyrosine-phosphorylation-regulated kinase 1A (Homo sapiens, UniProt Q13627);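 also: measured against DYRK1A as one member of a broad kinome profiling panel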
[5] = target: Activated CDC42 kinase 1 (Homo sapiens, UniProt Q07912); test: Navigating the Kinome. Panel member name: ACK1
[6] = target: Glycogen synthase kinase-3 beta (Homo sapiens, UniProt P49841);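 also: value comes from a broad kinome profiling panel, with GSK3B as the panel member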
[7] = target: Vascular endothelial growth factor receptor 1 (Homo sapiens, UniProt P17948);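 also: measured within a kinome-wide profiling panel, FLT1 as the panel member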
[8] = target: Tyrosine-protein kinase JAK2 (Homo sapiens, UniProt O60674);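 also: JAK2 tested as one member of a kinase panel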
[9] = target: Tyrosine-protein kinase Fyn (Homo sapiens, UniProt P06241)
[10] = target: Macrophage-stimulating protein receptor (Homo sapiens, UniProt Q04912); test: Navigating the Kinome. Panel member name: MST1R
[11] = target: Tyrosine-protein kinase receptor TYRO3 (Homo sapiens, UniProt Q06418);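 also: TYRO3 value obtained as one member of a kinome-wide profiling panel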
[12] = target: Protein kinase C theta type (Homo sapiens, UniProt Q04759); test: Navigating the Kinome. Panel member name: PRKCQ
[13] = target: Serine/threonine-protein kinase D3 (Homo sapiens, UniProt O94806);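 also: determined within a kinase panel screen, with PRKCN as the panel member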
Chain of Serine/threonine-protein kinase D3 (O94806 whole entry): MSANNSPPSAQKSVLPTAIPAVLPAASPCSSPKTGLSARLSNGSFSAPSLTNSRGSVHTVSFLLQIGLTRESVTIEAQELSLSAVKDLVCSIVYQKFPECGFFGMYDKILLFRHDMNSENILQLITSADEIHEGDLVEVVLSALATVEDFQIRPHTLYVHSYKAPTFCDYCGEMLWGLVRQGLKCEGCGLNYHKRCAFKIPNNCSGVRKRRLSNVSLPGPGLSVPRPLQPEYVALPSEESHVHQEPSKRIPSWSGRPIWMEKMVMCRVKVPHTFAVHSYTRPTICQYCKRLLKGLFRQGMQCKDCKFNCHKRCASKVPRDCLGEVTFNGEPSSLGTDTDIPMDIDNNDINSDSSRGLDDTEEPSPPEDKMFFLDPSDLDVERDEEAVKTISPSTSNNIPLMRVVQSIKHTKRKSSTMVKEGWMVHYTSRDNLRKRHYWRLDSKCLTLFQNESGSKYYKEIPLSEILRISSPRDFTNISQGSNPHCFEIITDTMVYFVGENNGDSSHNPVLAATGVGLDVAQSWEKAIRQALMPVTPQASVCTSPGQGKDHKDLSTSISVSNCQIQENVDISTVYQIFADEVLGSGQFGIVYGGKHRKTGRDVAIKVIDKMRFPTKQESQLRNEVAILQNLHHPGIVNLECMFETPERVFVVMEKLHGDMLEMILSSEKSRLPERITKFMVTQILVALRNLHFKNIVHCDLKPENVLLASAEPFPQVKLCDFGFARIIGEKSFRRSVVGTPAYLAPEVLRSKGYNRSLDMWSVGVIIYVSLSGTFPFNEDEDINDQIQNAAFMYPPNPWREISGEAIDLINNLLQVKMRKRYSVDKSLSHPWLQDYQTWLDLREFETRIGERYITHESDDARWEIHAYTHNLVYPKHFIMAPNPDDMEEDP

[14] = target: BDNF/NT-3 growth factors receptor (Homo sapiens, UniProt Q16620);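 also: NTRK2 measured as one member of a broad kinome-wide kinase profiling panel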
[15] = target: Tyrosine-protein kinase BTK (Homo sapiens, UniProt Q06187)
[16] = target: Serine/threonine-protein kinase pim-1 (Homo sapiens, UniProt P11309)
[17] = target: Mitogen-activated protein kinase 8 (Homo sapiens, UniProt P45983);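 also: value comes from one member of a kinome-wide kinase profiling panel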
[18] = target: cAMP-dependent protein kinase catalytic subunit alpha (Homo sapiens, UniProt P17612)
[19] = target: Dual specificity protein kinase CLK2 (Homo sapiens, UniProt P49760)
[20] = target: Dual specificity protein kinase CLK4 (Homo sapiens, UniProt Q9HAZ1)
[21] = target: Mitogen-activated protein kinase kinase kinase kinase 5 (Homo sapiens, UniProt Q9Y4K4);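 also: measured as one member of a kinome-spanning kinase panel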
Chain of Mitogen-activated protein kinase kinase kinase kinase 5 (Q9Y4K4 whole entry): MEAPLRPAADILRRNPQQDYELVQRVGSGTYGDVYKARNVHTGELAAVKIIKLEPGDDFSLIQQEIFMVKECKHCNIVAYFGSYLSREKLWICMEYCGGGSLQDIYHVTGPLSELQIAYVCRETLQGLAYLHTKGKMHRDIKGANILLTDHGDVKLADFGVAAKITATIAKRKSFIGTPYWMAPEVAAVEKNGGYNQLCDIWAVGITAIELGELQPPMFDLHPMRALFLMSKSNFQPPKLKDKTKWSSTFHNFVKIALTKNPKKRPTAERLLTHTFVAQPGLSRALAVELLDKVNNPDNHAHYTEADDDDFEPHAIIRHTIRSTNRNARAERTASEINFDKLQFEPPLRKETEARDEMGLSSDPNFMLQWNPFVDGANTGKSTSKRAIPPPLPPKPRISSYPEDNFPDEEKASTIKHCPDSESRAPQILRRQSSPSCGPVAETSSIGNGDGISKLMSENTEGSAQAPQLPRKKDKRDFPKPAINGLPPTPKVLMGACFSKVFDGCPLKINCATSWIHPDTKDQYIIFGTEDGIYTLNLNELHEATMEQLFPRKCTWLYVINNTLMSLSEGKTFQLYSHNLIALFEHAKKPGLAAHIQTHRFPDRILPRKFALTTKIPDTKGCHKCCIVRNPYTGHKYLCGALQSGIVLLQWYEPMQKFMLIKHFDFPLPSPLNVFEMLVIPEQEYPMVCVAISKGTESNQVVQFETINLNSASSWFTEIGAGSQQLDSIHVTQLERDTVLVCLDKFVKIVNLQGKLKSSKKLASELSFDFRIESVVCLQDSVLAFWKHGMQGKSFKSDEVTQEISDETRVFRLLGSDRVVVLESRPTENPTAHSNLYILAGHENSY

[22] = target: Glycogen synthase kinase-3 alpha (Homo sapiens, UniProt P49840);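 also: GSK3A result taken from a broad kinome-wide kinase panel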
[23] = target: Platelet-derived growth factor receptor alpha (Homo sapiens, UniProt P16234); test: Navigating the Kinome. Panel member name: PDGFRA
[24] = target: Aurora kinase A (Homo sapiens, UniProt O14965);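 also: value from the Navigating the Kinome kinase panel profiling, panel entry STK6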
Chain of Aurora kinase A (O14965 whole entry): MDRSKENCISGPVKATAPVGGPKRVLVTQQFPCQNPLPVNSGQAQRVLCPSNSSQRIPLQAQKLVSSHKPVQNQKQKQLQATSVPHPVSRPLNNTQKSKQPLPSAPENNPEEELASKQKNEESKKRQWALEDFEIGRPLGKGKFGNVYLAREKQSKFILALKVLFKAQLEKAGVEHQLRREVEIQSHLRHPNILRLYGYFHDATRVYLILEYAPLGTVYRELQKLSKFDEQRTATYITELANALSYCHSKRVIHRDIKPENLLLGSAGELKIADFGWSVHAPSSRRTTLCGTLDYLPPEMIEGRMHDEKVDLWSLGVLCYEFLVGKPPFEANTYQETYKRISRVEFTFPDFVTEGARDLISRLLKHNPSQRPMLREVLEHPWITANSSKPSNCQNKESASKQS

[25] = target: Mitogen-activated protein kinase kinase kinase kinase 2 (Homo sapiens, UniProt Q12851);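 also: measured as one member of a kinome-wide kinase panel, with MAP4K2 as the panel entry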
[26] = target: Activin receptor type-1 (Homo sapiens, UniProt Q04771); test: Navigating the Kinome. Panel member name: ACVR1
Chain of Activin receptor type-1 (Q04771 whole entry): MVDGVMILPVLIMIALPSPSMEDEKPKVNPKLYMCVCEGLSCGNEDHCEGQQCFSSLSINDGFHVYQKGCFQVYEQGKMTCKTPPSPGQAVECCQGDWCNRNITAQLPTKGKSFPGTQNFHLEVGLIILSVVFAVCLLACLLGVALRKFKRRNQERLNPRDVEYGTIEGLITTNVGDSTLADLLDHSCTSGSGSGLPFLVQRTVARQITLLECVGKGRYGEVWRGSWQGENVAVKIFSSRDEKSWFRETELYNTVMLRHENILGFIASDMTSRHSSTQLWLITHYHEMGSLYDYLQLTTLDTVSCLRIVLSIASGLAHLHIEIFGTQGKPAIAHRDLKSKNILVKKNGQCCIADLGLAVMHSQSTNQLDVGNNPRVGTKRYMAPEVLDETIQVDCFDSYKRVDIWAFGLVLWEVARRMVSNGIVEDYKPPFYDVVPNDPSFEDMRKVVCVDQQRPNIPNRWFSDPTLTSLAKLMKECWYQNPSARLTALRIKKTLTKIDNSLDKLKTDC

[27] = target: High affinity nerve growth factor receptor (Homo sapiens, UniProt P04629);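 also: NTRK1 tested as one member of a kinome-wide profiling panel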
[28] = target: Mitogen-activated protein kinase 14 (Homo sapiens, UniProt Q16539);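 also: part of a kinome-wide panel, MAPK14 entry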
[29] = target: Tyrosine-protein kinase Lck (Homo sapiens, UniProt P06239);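 also: lck was assayed as one member of a kinase panel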
[30] = target: Mast/stem cell growth factor receptor Kit (Homo sapiens, UniProt P10721);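 also: KIT entry within a kinase panel assay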
[31] = target: Leucine-rich repeat serine/threonine-protein kinase 2 (Homo sapiens, UniProt Q5S007);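 also: value from a broad kinome-wide panel profiling study in which LRRK2 was one of the kinases tested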
[32] = target: Mitogen-activated protein kinase 9 (Homo sapiens, UniProt P45984);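 also: value from a kinome panel profiling assay, MAPK9 panel entry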
[33] = target: Calcium/calmodulin-dependent protein kinase type II subunit alpha (Homo sapiens, UniProt Q9UQM7); test: Navigating the Kinome. Panel member name: CAMK2A
[34] = target: Dual specificity tyrosine-phosphorylation-regulated kinase 1B (Homo sapiens, UniProt Q9Y463); test: Navigating the Kinome. Panel member name: DYRK1B
[35] = target: Cyclin-dependent kinase 9 (Homo sapiens, UniProt P50750);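 also: value from the CDK9 entry of a kinome-spanning kinase panel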
[36] = target: Inhibitor of nuclear factor kappa-B kinase subunit epsilon (Homo sapiens, UniProt Q14164); test: Navigating the Kinome. Panel member name: IKBKE
[37] = target: Tyrosine-protein kinase ABL1 (Homo sapiens, UniProt P00519)
[38] = target: Proto-oncogene tyrosine-protein kinase receptor Ret (Homo sapiens, UniProt P07949);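 also: measured within a kinome-wide profiling panel, RET as the panel member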
[39] = target: ALK tyrosine kinase receptor (Homo sapiens, UniProt Q9UM73);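 also: ALK tested as one member of a kinase panel screen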
[40] = target: Death-associated protein kinase 3 (Homo sapiens, UniProt O43293);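 also: measured as one member of a kinome-wide profiling panel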
[41] = target: Receptor-type tyrosine-protein kinase FLT3 (Homo sapiens, UniProt P36888);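 also: FLT3 was tested as one member of a kinome-wide kinase panel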
Chain of Receptor-type tyrosine-protein kinase FLT3 (P36888 whole entry): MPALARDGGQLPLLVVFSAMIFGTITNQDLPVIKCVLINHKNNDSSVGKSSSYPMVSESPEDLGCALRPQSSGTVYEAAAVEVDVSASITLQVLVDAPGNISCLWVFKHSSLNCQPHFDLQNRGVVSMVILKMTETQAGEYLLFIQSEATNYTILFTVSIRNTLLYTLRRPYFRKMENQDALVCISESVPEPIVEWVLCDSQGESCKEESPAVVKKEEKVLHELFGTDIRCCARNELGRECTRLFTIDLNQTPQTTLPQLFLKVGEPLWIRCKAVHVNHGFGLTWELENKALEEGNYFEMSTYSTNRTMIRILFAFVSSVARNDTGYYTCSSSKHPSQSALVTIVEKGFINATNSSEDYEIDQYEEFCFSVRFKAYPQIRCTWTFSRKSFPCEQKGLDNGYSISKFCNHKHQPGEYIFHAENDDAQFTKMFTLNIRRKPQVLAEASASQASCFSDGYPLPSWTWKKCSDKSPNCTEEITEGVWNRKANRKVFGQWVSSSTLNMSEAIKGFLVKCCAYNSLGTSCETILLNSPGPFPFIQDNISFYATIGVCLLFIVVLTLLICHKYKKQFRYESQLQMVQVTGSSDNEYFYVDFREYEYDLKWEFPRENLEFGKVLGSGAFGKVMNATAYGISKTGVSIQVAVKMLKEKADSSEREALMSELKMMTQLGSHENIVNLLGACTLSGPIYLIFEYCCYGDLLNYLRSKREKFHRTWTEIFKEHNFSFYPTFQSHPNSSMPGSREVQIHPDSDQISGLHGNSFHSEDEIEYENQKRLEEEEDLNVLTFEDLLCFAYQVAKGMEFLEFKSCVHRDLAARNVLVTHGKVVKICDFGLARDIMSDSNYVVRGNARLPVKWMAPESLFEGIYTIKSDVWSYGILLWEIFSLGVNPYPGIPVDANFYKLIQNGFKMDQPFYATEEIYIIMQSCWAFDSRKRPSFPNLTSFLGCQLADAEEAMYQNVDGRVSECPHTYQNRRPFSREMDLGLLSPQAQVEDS

[42] = target: Serine/threonine-protein kinase N2 (Homo sapiens, UniProt Q16513)
[43] = target: 5'-AMP-activated protein kinase catalytic subunit alpha-1 (Homo sapiens, UniProt Q13131)
[44] = target: Cyclin-dependent kinase 19 (Homo sapiens, UniProt Q9BWU1); test: Navigating the Kinome. Panel member name: CDC2L6
[45] = target: cAMP-dependent protein kinase catalytic subunit PRKX (Homo sapiens, UniProt P51817)
[46] = target: Insulin-like growth factor 1 receptor (Homo sapiens, UniProt P08069); test: Navigating the Kinome. Panel member name: IGF1R
[47] = target: Cyclin-dependent kinase 8 (Homo sapiens, UniProt P49336); test: Navigating the Kinome. Panel member name: CDK8
Chain of Cyclin-dependent kinase 8 (P49336 whole entry): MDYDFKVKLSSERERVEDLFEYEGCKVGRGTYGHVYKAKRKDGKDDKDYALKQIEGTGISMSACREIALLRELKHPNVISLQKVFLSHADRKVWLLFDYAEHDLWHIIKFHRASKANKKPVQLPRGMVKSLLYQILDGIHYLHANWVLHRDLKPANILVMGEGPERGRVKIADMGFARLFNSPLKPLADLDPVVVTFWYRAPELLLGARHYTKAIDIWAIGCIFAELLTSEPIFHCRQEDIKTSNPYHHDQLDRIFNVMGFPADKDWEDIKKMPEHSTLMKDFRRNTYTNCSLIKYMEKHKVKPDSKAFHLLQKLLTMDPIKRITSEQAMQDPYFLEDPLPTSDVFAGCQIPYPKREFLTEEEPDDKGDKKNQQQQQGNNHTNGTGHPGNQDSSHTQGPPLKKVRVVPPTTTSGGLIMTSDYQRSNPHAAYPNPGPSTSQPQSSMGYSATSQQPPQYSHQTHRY

[48] = target: Leukocyte tyrosine kinase receptor (Homo sapiens, UniProt P29376); test: Navigating the Kinome. Panel member name: LTK
[49] = target: Dual specificity mitogen-activated protein kinase kinase 2 (Homo sapiens, UniProt P36507); test: Navigating the Kinome. Panel member name: MAP2K2
[50] = target: G protein-coupled receptor kinase 5 (Homo sapiens, UniProt P34947); test: Navigating the Kinome. Panel member name: GPRK5
[51] = target: Vascular endothelial growth factor receptor 2 (Homo sapiens, UniProt P35968)
[52] = target: Fibroblast growth factor receptor 1 (Homo sapiens, UniProt P11362)
[53] = target: Macrophage colony-stimulating factor 1 receptor (Homo sapiens, UniProt P07333);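 also: value comes from the Navigating the Kinome screening panel, CSF1R member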
Chain of Macrophage colony-stimulating factor 1 receptor (P07333 whole entry): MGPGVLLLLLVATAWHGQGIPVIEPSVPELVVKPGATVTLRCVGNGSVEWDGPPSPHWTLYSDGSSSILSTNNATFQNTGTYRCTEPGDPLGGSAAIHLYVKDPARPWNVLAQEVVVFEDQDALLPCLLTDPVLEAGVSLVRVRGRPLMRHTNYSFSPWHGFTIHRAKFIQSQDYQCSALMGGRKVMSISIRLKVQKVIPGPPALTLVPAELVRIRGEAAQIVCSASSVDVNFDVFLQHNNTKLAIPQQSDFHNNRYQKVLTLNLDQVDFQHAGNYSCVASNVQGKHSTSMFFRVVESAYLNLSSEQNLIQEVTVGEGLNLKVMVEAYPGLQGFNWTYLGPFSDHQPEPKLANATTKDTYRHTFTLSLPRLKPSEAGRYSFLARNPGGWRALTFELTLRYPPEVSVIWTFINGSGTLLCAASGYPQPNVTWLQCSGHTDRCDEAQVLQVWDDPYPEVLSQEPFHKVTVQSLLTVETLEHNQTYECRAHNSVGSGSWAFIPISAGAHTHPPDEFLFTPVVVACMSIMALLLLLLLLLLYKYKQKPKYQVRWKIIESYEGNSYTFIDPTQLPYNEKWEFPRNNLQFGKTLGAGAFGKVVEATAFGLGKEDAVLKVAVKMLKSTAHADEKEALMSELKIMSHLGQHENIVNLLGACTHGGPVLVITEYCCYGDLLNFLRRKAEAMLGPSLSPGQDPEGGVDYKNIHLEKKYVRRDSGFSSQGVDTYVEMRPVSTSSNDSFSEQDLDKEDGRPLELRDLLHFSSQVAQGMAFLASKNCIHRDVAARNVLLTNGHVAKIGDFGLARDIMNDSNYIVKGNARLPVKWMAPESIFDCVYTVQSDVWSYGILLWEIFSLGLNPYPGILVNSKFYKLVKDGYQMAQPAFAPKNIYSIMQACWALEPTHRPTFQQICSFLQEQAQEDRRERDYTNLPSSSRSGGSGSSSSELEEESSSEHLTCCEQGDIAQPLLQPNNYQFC

[54] = target: Mitogen-activated protein kinase kinase kinase kinase 4 (Homo sapiens, UniProt O95819)
[55] = target: Serine/threonine-protein kinase TAO1 (Homo sapiens, UniProt Q7L7X3)
[56] = target: Cyclin-dependent kinase 5 (Homo sapiens, UniProt Q00535);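 also: CDK5 measured as one member of a kinase profiling panel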
[57] = target: Serine/threonine-protein kinase TBK1 (Homo sapiens, UniProt Q9UHD2); test: Navigating the Kinome. Panel member name: TBK1
[58] = target: Tyrosine-protein kinase JAK3 (Homo sapiens, UniProt P52333)

## O=C(NCc1ccccc1)c1cc2ncc(Br)cn2n1
[1]
  IC50: > 99 µM (inactive)
[2]
  IC50: > 99 µM (inactive)

## COc1cc2ncc3c(N)nc4c(C)c(N)ccc4c3c2cc1OC
[3]
  Ki: > 3.16 µM (inactive)
[4]
  Ki: > 2 µM (inactive)
[5]
  Ki: > 3.98 µM (inactive)
[6]
  Ki: > 3.98 µM (inactive)
[7]
  Ki: 3.16 µM (active)
[8]
  Ki: > 2.51 µM (inactive)
[9]
  Ki: > 6.31 µM (inactive)
[10]
  Ki: > 3.98 µM (inactive)
[11]
  Ki: > 3.16 µM (inactive)
[12]
  Ki: > 2.51 µM (inactive)
[13]
  Ki: 0.158 µM (active)
[14]
  Ki: > 3.98 µM (inactive)
[15]
  Ki: > 6.31 µM (inactive)
[16]
  Ki: > 6.31 µM (inactive)
[17]
  Ki: > 5.01 µM (inactive)
[18]
  Ki: > 1.26 µM (inactive)
[19]
  Ki: > 3.98 µM (inactive)
[20]
  Ki: > 2.51 µM (inactive)
[21]
  Ki: > 3.98 µM (inactive)
[22]
  Ki: > 3.98 µM (inactive)
[23]
  Ki: > 2.51 µM (inactive)
[24]
  Ki: > 1.58 µM (inactive)
[25]
  Ki: > 2.51 µM (inactive)
[26]
  Ki: > 3.98 µM (inactive)
[27]
  Ki: > 3.16 µM (inactive)
[28]
  Ki: > 3.98 µM (inactive)
[29]
  Ki: > 6.31 µM (inactive)
[30]
  Ki: > 3.98 µM (inactive)
[31]
  Ki: 0.0631 µM (active)
[32]
  Ki: > 3.98 µM (inactive)
[33]
  Ki: > 7.94 µM (inactive)
[34]
  Ki: > 2.51 µM (inactive)
[35]
  Ki: > 1.58 µM (inactive)
[36]
  Ki: > 3.16 µM (inactive)
[37]
  Ki: > 3.98 µM (inactive)
[38]
  Ki: > 3.16 µM (inactive)
[39]
  Ki: > 6.31 µM (inactive)
[40]
  Ki: 3.98 µM (active)
[41]
  Ki: > 3.16 µM (inactive)
[42]
  Ki: > 5.01 µM (inactive)
[43]
  Ki: > 3.16 µM (inactive)
[44]
  Ki: > 100 µM (inactive)
[45]
  Ki: > 3.16 µM (inactive)
[46]
  Ki: > 2.51 µM (inactive)
[47]
  Ki: > 3.98 µM (inactive)
[48]
  Ki: > 2.51 µM (inactive)
[49]
  Ki: > 3.98 µM (inactive)
[50]
  Ki: > 3.98 µM (inactive)
[51]
  Ki: > 2.51 µM (inactive)
[52]
  Ki: > 3.98 µM (inactive)
[53]
  Ki: > 2.51 µM (inactive)
[54]
  Ki: > 5.01 µM (inactive)
[55]
  Ki: > 6.31 µM (inactive)
[56]
  Ki: > 3.16 µM (inactive)
[57]
  Ki: > 3.16 µM (inactive)
[58]
  Ki: > 5.01 µM (inactive)
